Key:
[1] = Protein binding in human plasma assessed as free fraction incubated for 2 hrs by LC-MS/MS analysis; assay type: ADME, cell-free
[2] = Cmax in Sprague-Dawley rat at 3 mg/kg, po administered as cassette dose and measured upto 24 hrs by LC-MS/MS analysis; assay type: ADME, organism-based; details: in vivo
[3] = Oral bioavailability in cynomolgus monkey at 2 mg/kg administered as cassette dose and measured upto 24 hrs by LC-MS/MS analysis; assay type: ADME, organism-based, Macaca fascicularis; details: in vivo
[4] = AUC in cynomolgus monkey at 2 mg/kg, po administered as cassette dose and measured upto 24 hrs by LC-MS/MS analysis; assay type: ADME, organism-based, Macaca fascicularis; details: in vivo
[5] = Hepatic blood flow in cynomolgus monkey at 0.3 mg/kg, iv administered as cassette dose and measured upto 24 hrs by LC-MS/MS analysis; assay type: ADME, organism-based, Macaca fascicularis; details: in vivo
[6] = In vivo inhibition of CDK2 in athymic nude mouse assessed as reduction in retinoblastoma protein phosphorylation at 30 mg/kg, po administered once daily for 5 days and measured after 24 hrs relative to control; assay type: functional; details: 144 h, time 6 day
[7] = AUC in Sprague-Dawley rat at 3 mg/kg, po administered as cassette dose and measured upto 24 hrs by LC-MS/MS analysis; assay type: ADME, organism-based; details: in vivo
[8] = Drug concentration in athymic nude mouse plasma at 30 mg/kg, po administered as […] for 5 days and measured after 24 hrs; assay type: ADME, organism-based; details: in vivo, 144 h, BLD = below limit of detection, time 6 day
hERG (KCNH2) = hERG (KCNH2) (Homo sapiens, UniProt Q12809); assay: Inhibition of human ERG at 10 uM by patch clamp method relative to control; assay type: toxicity
Cytochrome P450 2B6 = target: T1, Cytochrome P450 2B6 (Homo sapiens, UniProt P20813); assay: Inhibition of CYP2B6 in human liver microsomes using bupropion as substrate in presence of NADPH by LC-MS/MS analysis; assay type: ADME, Microsome
T1 sequence (P20813 whole entry): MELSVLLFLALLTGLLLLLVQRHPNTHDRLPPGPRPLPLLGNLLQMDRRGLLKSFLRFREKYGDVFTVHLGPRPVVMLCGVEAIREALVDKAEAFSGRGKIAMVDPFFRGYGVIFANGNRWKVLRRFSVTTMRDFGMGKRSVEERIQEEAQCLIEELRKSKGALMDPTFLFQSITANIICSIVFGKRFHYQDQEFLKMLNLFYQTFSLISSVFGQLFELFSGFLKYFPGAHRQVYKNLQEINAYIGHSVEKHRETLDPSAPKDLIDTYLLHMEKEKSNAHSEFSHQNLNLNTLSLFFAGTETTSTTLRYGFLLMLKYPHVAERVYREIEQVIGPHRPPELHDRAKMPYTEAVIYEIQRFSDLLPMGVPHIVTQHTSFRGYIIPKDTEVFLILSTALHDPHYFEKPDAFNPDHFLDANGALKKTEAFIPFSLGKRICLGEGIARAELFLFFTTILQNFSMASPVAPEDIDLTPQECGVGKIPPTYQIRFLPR

[9] = Hepatic blood flow in Sprague-Dawley rat at 0.5 mg/kg, iv administered as cassette dose and measured upto 24 hrs by LC-MS/MS analysis; assay type: ADME, organism-based; details: in vivo
[10] = Toxicity in athymic nude mouse xenografted with human OVCAR-3 cells assessed as animal death at 30 mg/kg, po administered once daily for 28 days; assay type: organism-based; details: in vivo, 672 h, time 28 day
[11] = Apparent permeability from apical to basolateral side in human Caco-2 cells at 50 uM incubated for 120 mins by LCMS analysis
[12] = Toxicity in athymic nude mouse xenografted with human OVCAR-3 cells assessed as adverse effect at 30 mg/kg, po administered once daily for 28 days; assay type: organism-based; details: in vivo, 672 h, time 28 day
[13] = Intrinsic clearance in human liver microsomes at 1 uM measured upto 30 mins by LC/MS analysis; assay type: ADME, Microsome; details: read-out: CLH (converted)
Cytochrome P450 2C19 = Cytochrome P450 2C19 (Homo sapiens, UniProt P33261); assay: Inhibition of CYP2C19 in human liver microsomes using S-mephenytoin as substrate in presence of NADPH by LC-MS/MS analysis; assay type: ADME, Microsome
Cytochrome P450 2C9 = Cytochrome P450 2C9 (Homo sapiens, UniProt P11712); assay: Inhibition of CYP2C9 in human liver microsomes using diclofenac as substrate in presence of NADPH by LC-MS/MS analysis; assay type: ADME, Microsome
[14] = Half-life in cynomolgus monkey at 0.3 mg/kg, iv administered as cassette dose and measured upto 24 hrs by LC-MS/MS analysis; assay type: ADME, organism-based, Macaca fascicularis; details: in vivo
OVCAR-3 = assay: Antitumor activity against human OVCAR-3 cells xenografted in athymic nude mouse assessed as tumor growth inhibition at 30 mg/kg, po administered once daily for 28 days relative to control; assay type: functional; details: OVCAR-3, 672 h, time 28 day, read-out: TGI
[15] = Cmax in cynomolgus monkey at 2 mg/kg, po administered as cassette dose and measured upto 24 hrs by LC-MS/MS analysis; assay type: ADME, organism-based, Macaca fascicularis; details: in vivo
Cytochrome P450 3A4 = Cytochrome P450 3A4 (Homo sapiens, UniProt P08684); assay: Inhibition of CYP3A4 in human liver microsomes using midazolam/testosterone as substrate in presence of NADPH by LC-MS/MS analysis; assay type: ADME, Microsome
[16] = Oral bioavailability in Sprague-Dawley rat at 3 mg/kg administered as cassette dose and measured upto 24 hrs by LC-MS/MS analysis; assay type: ADME, organism-based; details: in vivo
Cytochrome P450 2D6 = Cytochrome P450 2D6 (Homo sapiens, UniProt P10635); assay: Inhibition of CYP2D6 in human liver microsomes using bufuralol as substrate in presence of NADPH by LC-MS/MS analysis; assay type: ADME, Microsome
Cytochrome P450 1A2 = target: T2, Cytochrome P450 1A2 (Homo sapiens, UniProt P05177); assay: Inhibition of CYP1A2 in human liver microsomes using 7-ethoxyresorufin as substrate in presence of NADPH by LC-MS/MS analysis; assay type: ADME, Microsome
T2 sequence (P05177 whole entry): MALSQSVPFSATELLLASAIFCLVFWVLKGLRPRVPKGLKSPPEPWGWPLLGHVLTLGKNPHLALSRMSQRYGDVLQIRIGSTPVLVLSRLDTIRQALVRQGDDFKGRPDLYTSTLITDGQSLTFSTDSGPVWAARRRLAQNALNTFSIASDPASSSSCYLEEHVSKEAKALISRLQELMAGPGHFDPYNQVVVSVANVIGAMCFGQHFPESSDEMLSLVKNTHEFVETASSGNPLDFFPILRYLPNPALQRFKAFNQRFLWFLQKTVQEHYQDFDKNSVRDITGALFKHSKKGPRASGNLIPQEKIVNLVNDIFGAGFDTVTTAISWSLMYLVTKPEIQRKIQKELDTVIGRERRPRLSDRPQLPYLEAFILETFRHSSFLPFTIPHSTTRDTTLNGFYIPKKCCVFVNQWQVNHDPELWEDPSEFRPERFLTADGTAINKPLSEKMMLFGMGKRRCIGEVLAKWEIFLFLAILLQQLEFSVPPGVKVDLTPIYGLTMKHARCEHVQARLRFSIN

Cytochrome P450 2C8 = target: T3, Cytochrome P450 2C8 (Homo sapiens, UniProt P10632); assay: Inhibition of CYP2C8 in human liver microsomes using amodiaquine as substrate in presence of NADPH by LC-MS/MS analysis; assay type: ADME, Microsome
T3 sequence (P10632 whole entry): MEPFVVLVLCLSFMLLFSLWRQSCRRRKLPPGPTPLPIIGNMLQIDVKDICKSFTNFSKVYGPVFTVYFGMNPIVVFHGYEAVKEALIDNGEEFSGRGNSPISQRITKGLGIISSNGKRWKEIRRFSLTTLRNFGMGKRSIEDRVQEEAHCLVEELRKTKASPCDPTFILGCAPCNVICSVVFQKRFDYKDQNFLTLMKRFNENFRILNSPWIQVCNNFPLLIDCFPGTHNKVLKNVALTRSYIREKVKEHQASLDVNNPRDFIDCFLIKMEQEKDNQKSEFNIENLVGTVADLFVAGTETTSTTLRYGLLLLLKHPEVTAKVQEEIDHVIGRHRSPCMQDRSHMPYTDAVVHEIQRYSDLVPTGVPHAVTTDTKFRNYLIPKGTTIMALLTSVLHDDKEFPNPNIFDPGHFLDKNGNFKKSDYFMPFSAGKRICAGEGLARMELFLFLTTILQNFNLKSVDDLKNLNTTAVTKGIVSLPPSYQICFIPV

[17] = Toxicity in athymic nude mouse xenografted with human OVCAR-3 cells assessed as body weight loss at 30 mg/kg, po administered once daily for 28 days; assay type: organism-based; details: in vivo, 672 h, time 28 day
[18] = Half-life in Sprague-Dawley rat at 0.5 mg/kg, iv administered as cassette dose and measured upto 24 hrs by LC-MS/MS analysis; assay type: ADME, organism-based; details: in vivo
[19] = Volume of distribution at steady state in cynomolgus monkey at 0.3 mg/kg, iv administered as cassette dose and measured upto 24 hrs by LC-MS/MS analysis; assay type: ADME, organism-based, Macaca fascicularis; details: in vivo, read-out: Vdss
[20] = Volume of distribution at steady state in Sprague-Dawley rat at 0.5 mg/kg, iv administered as cassette dose and measured upto 24 hrs by LC-MS/MS analysis; assay type: ADME, organism-based; details: in vivo, read-out: Vdss
[21] = Solubility of compound in SGF by HPLC analysis

Sequence of hERG (KCNH2) (Q12809 whole entry): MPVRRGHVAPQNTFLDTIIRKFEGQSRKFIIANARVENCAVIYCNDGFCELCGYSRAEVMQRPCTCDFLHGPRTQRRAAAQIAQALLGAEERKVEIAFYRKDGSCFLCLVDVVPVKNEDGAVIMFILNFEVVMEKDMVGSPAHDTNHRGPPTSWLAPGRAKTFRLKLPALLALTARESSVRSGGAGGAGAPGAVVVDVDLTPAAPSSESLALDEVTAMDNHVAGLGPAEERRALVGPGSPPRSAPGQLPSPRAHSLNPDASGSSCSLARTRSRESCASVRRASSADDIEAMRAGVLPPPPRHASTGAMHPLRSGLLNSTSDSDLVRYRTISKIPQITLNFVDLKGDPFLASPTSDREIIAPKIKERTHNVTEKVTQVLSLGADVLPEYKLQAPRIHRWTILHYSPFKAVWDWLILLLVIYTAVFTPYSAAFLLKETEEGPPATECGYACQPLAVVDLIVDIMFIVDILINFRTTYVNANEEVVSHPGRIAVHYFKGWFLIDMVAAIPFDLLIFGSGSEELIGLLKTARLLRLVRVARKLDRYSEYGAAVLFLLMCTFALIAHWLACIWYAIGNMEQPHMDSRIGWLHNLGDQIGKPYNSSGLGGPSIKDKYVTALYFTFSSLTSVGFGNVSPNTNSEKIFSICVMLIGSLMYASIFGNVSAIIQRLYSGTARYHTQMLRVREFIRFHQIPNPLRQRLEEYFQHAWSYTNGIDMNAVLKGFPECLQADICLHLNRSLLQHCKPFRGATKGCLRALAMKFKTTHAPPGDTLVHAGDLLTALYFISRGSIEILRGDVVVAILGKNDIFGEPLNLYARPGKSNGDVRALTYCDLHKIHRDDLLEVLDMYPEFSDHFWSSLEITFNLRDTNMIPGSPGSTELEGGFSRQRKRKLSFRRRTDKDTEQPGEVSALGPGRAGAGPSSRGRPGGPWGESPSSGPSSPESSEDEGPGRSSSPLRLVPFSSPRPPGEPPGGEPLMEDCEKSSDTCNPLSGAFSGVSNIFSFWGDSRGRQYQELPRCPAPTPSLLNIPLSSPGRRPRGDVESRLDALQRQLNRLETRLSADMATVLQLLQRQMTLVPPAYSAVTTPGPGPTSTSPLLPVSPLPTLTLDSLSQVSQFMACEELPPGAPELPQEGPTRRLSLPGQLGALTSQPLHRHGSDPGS
Sequence of Cytochrome P450 2C19 (P33261 whole entry): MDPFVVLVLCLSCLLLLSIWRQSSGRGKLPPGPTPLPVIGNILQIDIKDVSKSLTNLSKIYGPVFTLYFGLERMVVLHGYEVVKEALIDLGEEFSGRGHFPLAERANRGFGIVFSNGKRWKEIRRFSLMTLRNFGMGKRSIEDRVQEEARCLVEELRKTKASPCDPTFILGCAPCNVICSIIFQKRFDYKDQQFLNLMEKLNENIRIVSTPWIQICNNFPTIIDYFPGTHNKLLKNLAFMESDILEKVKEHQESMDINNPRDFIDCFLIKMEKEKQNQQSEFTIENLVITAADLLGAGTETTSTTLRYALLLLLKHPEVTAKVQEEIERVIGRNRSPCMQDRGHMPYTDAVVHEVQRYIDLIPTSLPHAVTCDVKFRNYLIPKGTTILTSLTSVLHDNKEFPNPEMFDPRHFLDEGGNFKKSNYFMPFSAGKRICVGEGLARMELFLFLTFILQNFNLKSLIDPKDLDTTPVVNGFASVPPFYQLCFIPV
Sequence of Cytochrome P450 2C9 (P11712 whole entry): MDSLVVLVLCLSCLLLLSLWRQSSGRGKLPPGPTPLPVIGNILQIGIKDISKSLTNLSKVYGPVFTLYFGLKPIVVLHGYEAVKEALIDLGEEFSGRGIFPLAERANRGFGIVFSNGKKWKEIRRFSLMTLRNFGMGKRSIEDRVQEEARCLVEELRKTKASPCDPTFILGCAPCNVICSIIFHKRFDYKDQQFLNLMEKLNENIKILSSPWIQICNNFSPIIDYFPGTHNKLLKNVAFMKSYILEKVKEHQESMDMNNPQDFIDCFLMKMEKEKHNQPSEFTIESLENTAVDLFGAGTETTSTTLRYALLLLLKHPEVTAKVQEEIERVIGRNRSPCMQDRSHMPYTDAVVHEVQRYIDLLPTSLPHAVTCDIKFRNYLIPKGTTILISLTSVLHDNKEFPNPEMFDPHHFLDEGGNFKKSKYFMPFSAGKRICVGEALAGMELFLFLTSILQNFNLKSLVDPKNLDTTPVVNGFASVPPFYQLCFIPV
Sequence of Cytochrome P450 3A4 (P08684 whole entry): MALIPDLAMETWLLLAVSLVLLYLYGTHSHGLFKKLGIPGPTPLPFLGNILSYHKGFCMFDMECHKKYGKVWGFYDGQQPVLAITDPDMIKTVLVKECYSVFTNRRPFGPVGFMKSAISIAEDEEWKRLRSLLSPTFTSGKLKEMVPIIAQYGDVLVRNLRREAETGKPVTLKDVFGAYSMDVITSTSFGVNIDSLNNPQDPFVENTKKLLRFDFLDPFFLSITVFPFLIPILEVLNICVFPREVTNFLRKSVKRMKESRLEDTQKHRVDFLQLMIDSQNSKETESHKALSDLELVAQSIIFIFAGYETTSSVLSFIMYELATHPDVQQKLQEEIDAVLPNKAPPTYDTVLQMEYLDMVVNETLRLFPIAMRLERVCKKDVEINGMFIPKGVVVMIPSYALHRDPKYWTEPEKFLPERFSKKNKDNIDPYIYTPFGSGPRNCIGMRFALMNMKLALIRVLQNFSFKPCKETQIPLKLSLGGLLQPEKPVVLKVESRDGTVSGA
Sequence of Cytochrome P450 2D6 (P10635 whole entry): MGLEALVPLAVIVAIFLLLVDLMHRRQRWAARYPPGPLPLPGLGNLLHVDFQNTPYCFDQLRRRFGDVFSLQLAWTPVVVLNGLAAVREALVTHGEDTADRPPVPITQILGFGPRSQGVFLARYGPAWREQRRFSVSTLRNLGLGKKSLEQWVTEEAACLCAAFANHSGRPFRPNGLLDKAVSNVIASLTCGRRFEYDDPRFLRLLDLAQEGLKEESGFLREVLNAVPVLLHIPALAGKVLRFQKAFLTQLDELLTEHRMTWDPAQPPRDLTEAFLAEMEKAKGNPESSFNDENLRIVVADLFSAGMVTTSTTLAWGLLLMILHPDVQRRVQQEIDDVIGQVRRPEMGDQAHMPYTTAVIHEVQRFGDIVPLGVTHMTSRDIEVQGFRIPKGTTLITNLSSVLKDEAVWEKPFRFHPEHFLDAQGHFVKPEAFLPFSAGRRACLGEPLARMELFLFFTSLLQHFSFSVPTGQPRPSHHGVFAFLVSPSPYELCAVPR

With `CC(C)(O)Cn1cc(-c2nc(NC3CCN(S(=O)(=O)C4CC4)CC3)ncc2C(F)(F)F)cn1` the fraction unbound at 2 h [1] was 0.12, the Cmax [2] was 757 nM and the bioavailability [3] was 21%. For the same compound, the AUC at 24 h [4] was 5.65 µM·h, the QH [5] was 9% and the inhibition in vivo at 30 mg/kg [6] was ~50%. For the same compound, the AUC at 24 h [7] was 0.751 µM·h, the Cp [8] was “Bld” and the inhibition at 10 µM (hERG (KCNH2)) was 6.6%. For the same compound, the IC50 (Cytochrome P450 2B6) was > 25 µM, the QH [9] was 130% and the Activity [10] was “Non-Toxic”. For the same compound, the Papp A→B at 2 h, 50 µM [11] was 13 ×10⁻⁶ cm/s, the Activity [12] was “Non-Toxic” and the CLint scaled at 1 µM [13] was 8.33 mL/min/kg. For the same compound, the IC50 (Cytochrome P450 2C19) was > 25 µM, the IC50 (Cytochrome P450 2C9) was > 25 µM and the half-life [14] was 2.6 h. The inhibition in vivo at 30 mg/kg (OVCAR-3) was 38%, the Cmax [15] was 962 nM and the IC50 (Cytochrome P450 3A4) was > 25 µM. The bioavailability [16] was 51%, the IC50 (Cytochrome P450 2D6) was > 25 µM and the IC50 (Cytochrome P450 1A2) was > 25 µM. For the same compound, the IC50 (Cytochrome P450 2C8) was > 25 µM, the Activity [17] was “Non-Toxic” and the half-life [18] was 2 h. For the same compound, the Vd [19] was 0.4 L/kg, the Vd [20] was 1.8 L/kg and the solubility [21] was > 400 µg/mL.

From ChEMBL document CHEMBL5528049, “Discovery of (4-Pyrazolyl)-2-aminopyrimidines as Potent and Selective Inhibitors of Cyclin-Dependent Kinase 2” (J Med Chem, 2024)
